We go through 26 compounds from patent US20250326739A1, “CD38 MODULATORS AND USES THEREOF” (Aeovian Pharmaceuticals, Inc., priority 2022, published 2025).

One assay deals with human CD38 (Homo sapiens (Human), UniProt P28907). Nature of the assay: NAD+ cyclase activity assay with human recombinant CD38 protein. The settings on record: 1.9 nM human CD38, 15.8 μM e-NAD substrate, fluorescence read-out. The class given is biochemical. The procedure:
(§1) Example 5: NAD^+ Cydase Activity Assay with Human or Mouse Recombinant CD38 Protein
(§2) The following assay was used to determine the ability of compounds of the invention to inhibit the hydrolysis of NAD^+ by the human or mouse enzyme, CD38.
(§3) Reaction buffer: 40 mM HEPES/NaOH pH 7.5, 250 mM sucrose, 0.01% Tween
(§4) Final concentrations: 0.6 nM mouse CD38 (4947-AC, Bio-Techne GmbH) 1.9 nM human CD38 (AVI2404, Bio-Techne GmbH)
(§5) Substrate: 15.8 μM Nicotinamide 1,N6-ethenoadenine dinucleotide (E-NAD)
(§6) Read-out: Fluorescence intensity (extinction 300 nm/emission 410 nm)
(§7) Required reaction buffer, required CD38 concentration in reaction buffer and required e-NAD concentration in reaction buffer were prepared. Thereafter, 8 μL of CD38 in reaction buffer were added to High Control and compound concentration wells in 384 well plate (Corning #4514, 384 well, nonbinding surface, low volume, round bottom) and 8 μL of reaction buffer to Low Control. Compound dilutions were transferred via pintool technology that transfers 42.5 nL compound dilutions (12-point dose-response with factor three dilutions in 100% DMSO) well-to-well. Plate was subsequently shaken for 15 s at 1450 rpm and sealed for incubation for 30 min at room temperature. Thereafter, 2 μL of e-NAD in reaction buffer were added with Integra Voyager. After shaking for 15 s at 1450 rpm, plate was sealed, and assay signal was measured continuously with PHERAstar® fluorescence intensity module (extinction 300 nm/emission 410 nm).
(§8) Dose-response curves were constructed using twelve-point factor three dilutions in triplicates per plate. High control (full enzyme activity) was set to assay signal of CD38 and e-NAD in presence of vehicle (DMSO) and Low control (full enzyme inhibition) was set to assay signal of e-NAD and vehicle (DMSO) in absence of CD38. For data analysis, fluorescent signal of traces corresponding to each compound concentration and High and Low control was monitored over time. Each run, High Control (full enzyme activity) was fitted to Linear equation via GraphPad Prism to determine CD38 activity from the slope and determine the time interval of linear phase of reaction to account for minor fluctuations. Thereafter, slopes of all compound concentrations were determined via fitting to same linear equation (GraphPad Prism) over the same time interval as determined for High control. Percentage inhibition was calculated via normalization to High and Low Control via the equation: %−inhibition=100*(1−((Sample−Low control)/(High control−Low control))) Half maximal inhibitory concentration (IC50) values are yielded from the inflection point of the corresponding curve by fitting of resulting percentage inhibition values to standard equation (4 Parameter Logistic Model or Sigmoidal Dose-Response Model) via Excel Fit. Unless otherwise stated, fitting of curves was fixed to 100%-inhibition and unlocked for 0%-inhibition.

The target in another assay is mouse CD38 (Mus musculus (Mouse), UniProt P56528). Nature of the assay: NAD+ cyclase activity assay with mouse recombinant CD38 protein. The class given is biochemical. To be noted: 0.6 nM mouse CD38, 15.8 μM e-NAD substrate, fluorescence read-out. The procedure:
as §1, §2, §3, §4, §5, §6, §7, §8

Where only a bound is given, the exact number is not on record here.

Chain of human CD38 (P28907 whole entry): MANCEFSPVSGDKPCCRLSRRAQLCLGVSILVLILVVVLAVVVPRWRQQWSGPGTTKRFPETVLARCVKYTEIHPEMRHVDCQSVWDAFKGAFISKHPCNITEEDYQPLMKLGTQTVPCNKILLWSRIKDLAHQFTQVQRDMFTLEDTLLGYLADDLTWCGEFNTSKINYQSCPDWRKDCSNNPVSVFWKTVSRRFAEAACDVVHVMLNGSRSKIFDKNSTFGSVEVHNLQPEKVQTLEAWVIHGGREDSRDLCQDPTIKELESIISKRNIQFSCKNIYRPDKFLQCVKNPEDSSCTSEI
Chain of mouse CD38 (P56528 whole entry): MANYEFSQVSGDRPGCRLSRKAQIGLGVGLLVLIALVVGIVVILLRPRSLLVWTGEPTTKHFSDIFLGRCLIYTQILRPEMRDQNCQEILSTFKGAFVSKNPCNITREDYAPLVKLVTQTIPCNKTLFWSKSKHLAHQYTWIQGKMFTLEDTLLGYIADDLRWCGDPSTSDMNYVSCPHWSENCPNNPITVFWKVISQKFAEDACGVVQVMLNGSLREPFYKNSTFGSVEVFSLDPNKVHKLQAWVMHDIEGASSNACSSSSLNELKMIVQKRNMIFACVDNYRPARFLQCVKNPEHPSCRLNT

`Cc1cc(C(=O)NC2COCC(F)(F)C2)nc(-n2ccnc2)c1` (stereo in doubt) [Compound 67A, (R)—N-(5,5-Ddifluorotetrahydro-2H-pyran-3-yl)-6-(1H-imidazol-1-yl)-4-methylpicolinamide]: the figures for the half-inhibitory concentration (IC50) on human CD38 and on mouse CD38 were 0.1 to 1 µM and 0.001 to 0.01 µM, respectively.
Consider `Cc1cc(C(=O)NC2CCN(S(C)(=O)=O)CC2)nc(-n2ccnc2)c1` [Compound 1A, 6-(1H-Imidazol-1-yl)-4-methyl-N-(1-(methylsulfonyl)piperidin-4-yl)picolinamide], for which the IC50 (commonly the point on the concentration scale where inhibition reaches its midpoint) fell in the range of 0.03 to 0.1 µM at human CD38 and 0.001 to 0.01 µM at mouse CD38.
`CCS(=O)(=O)N1CCC(NC(=O)c2cc(C)cc(-n3ccnc3)n2)CC1` [Compound 2A, N-(1-(Ethylsulfonyl)piperidin-4-yl)-6-(1H-imidazol-1-yl)-4-methylpicolinamide]: the figures for the IC50 on human CD38 and on mouse CD38 were < 0.03 µM and 0.001 to 0.01 µM, respectively.
Turning to `Cc1cc(C(=O)NC2CCN(S(=O)(=O)C3CC3)CC2)nc(-n2ccnc2)c1` [Compound 3A, N-(1-(cyclopropylsulfonyl)piperidin-4-yl)-6-(1H-imidazol-1-yl)-4-methylpicolinamide], the IC50 at human CD38 was < 0.03 µM; at mouse CD38 it was 0.001 to 0.01 µM.
With `COCCS(=O)(=O)N1CCC(NC(=O)c2cc(C)cc(-n3ccnc3)n2)CC1` [Compound 4A, 6-(1H-Imidazol-1-yl)-N-(1-((2-methoxyethyl)sulfonyl)piperidin-4-yl)-4-methylpicolinamide], the concentration for half-maximal inhibition (IC50) on human CD38 was < 0.03 µM; on mouse CD38 it was 0.001 to 0.01 µM.
Take `Cc1cc(C(=O)NC2CCN(S(=O)(=O)C3CCCCC3)CC2)nc(-n2ccnc2)c1` [Compound 5A, N-(1-(Cyclohexylsulfonyl)piperidin-4-yl)-6-(1H-imidazol-1-yl)-4-methylpicolinamide]: the results for the concentration for half-maximal inhibition (IC50) at human CD38 and at mouse CD38 were < 0.03 µM and 0.001 to 0.01 µM, respectively.
Turning to `CCCS(=O)(=O)N1CCC(NC(=O)c2cc(C)cc(-n3ccnc3)n2)CC1` [Compound 6A, 6-(1H-Imidazol-1-yl)-4-methyl-N-(1-(propylsulfonyl)piperidin-4-yl)picolinamide], the figures for the IC50 at human CD38 and at mouse CD38 were < 0.03 µM and 0.001 to 0.01 µM, respectively.
With `Cc1cc(C(=O)NC2CN(S(C)(=O)=O)C2)nc(-n2ccnc2)c1` [Compound 7A, 6-(1H-Imidazol-1-yl)-4-methyl-N-(1-(methylsulfonyl)azetidin-3-yl)picolinamide], the IC50 lay in the range of 0.03 to 0.1 µM at human CD38 and 0.001 to 0.01 µM at mouse CD38.
For `Cc1cc(C(=O)NC2CCC(F)(F)CC2)nc(-n2ccnc2)c1` [Compound 8A, N-(4,4-Difluorocyclohexyl)-6-(1H-imidazol-1-yl)-4-methylpicolinamide], the IC50 at human CD38 was < 0.03 µM; on mouse CD38 it was 0.001 to 0.01 µM.
Consider `Cc1cc(C(=O)NC2CCCOC2)nc(-n2ccnc2)c1` (stereo not shown) [Compound 9A, 6-(1H-Imidazol-1-yl)-4-methyl-N-(tetrahydro-2H-pyran-3-yl)picolinamide], for which the concentration for half-maximal inhibition (IC50) at human CD38 is < 0.03 µM; at mouse CD38, 0.001 to 0.01 µM.
Take `CC(=O)N1CCC(NC(=O)c2cc(C)cc(-n3ccnc3)n2)CC1` [Compound 10A, N-(1-Acetylpiperidin-4-yl)-6-(1H-imidazol-1-yl)-4-methylpicolinamide]: the IC50 fell in the range of 0.03 to 0.1 µM on human CD38 and 0.001 to 0.01 µM at mouse CD38.
For the compound `Cc1cc(C(=O)NC2CCNCC2)nc(-n2ccnc2)c1` [Compound 11A, 6-(1H-Imidazol-1-yl)-4-methyl-N-(piperidin-4-yl)picolinamide], the IC50 is > 1 µM on human CD38 and 0.001 to 0.01 µM at mouse CD38.
On to `Cc1cc(C(=O)NC2CCC2)nc(-n2ccnc2)c1` [Compound 12A, N-Cyclobutyl-6-(1H-imidazol-1-yl)-4-methylpicolinamide], for which the IC50 at human CD38 was 0.03 to 0.1 µM; at mouse CD38, 0.001 to 0.01 µM.
As for `CCCC(=O)N1CCC(NC(=O)c2cc(C)cc(-n3ccnc3)n2)CC1` [Compound 13A, N-(1-Butyrylpiperidine-4-yl)-6-(1H-imidazol-1-yl)-4-methylpicolinamide], the 50% inhibitory concentration (IC50) fell in the range of 0.03 to 0.1 µM on human CD38 and 0.001 to 0.01 µM on mouse CD38.
As to `CNS(=O)(=O)N1CCC(NC(=O)c2cc(C)cc(-n3ccnc3)n2)CC1` [Compound 14A, 6-(1H-Imidazol-1-yl)-4-methyl-N-(1-(N-methylsulfamoyl)piperidin-4-yl)picolinamide], the results for the IC50 on human CD38 and on mouse CD38 were 0.1 to 1 µM and 0.001 to 0.01 µM, respectively.
For `COc1cc(C(=O)NC2CCN(S(C)(=O)=O)CC2)nc(-n2ccnc2)c1` [Compound 15A, 6-(1H-Imidazol-1-yl)-4-methoxy-N-(1-(methylsulfonyl)piperidin-4-yl)picolinamide] the same measures were 0.03 to 0.1 µM and 0.001 to 0.01 µM.
On the same counts, the results for `CS(=O)(=O)N1CCC(NC(=O)c2cccc(-n3ccnc3)n2)CC1` [Compound 16A, 6-(1H-Imidazol-1-yl)-N-(1-(methylsulfonyl)piperidin-4-yl)picolinamide] are 0.03 to 0.1 µM and 0.001 to 0.01 µM.
`Cc1cc(C(=O)NC2CCN(S(=O)(=O)N(C)C)CC2)nc(-n2ccnc2)c1` [Compound 18A, N-(1-(N,N-Dimethylsulfamoyl)piperidin-4-yl)-6-(1H-imidazol-1-yl)-4-methylpicolinamide]: the figures for the IC50 at human CD38 and on mouse CD38 were < 0.03 µM and 0.001 to 0.01 µM, respectively.
As to `Cc1cc(C(=O)NC2CCN(C(=O)CN3CCOCC3)CC2)nc(-n2ccnc2)c1` [Compound 19A, 6-(1H-Imidazol-1-yl)-4-methyl-N-(1-(2-morpholinoacetyl)piperidin-4-yl)picolinamide], the IC50 lay within 0.03 to 0.1 µM on human CD38 and 0.001 to 0.01 µM on mouse CD38.
With `COCCC(=O)N1CCC(NC(=O)c2cc(C)cc(-n3ccnc3)n2)CC1` [Compound 20A, 6-(1H-Imidazol-1-yl)-N-(1-(3-methoxypropanoyl)piperidin-4-yl)-4-methylpicolinamide], the results for the IC50 at human CD38 and on mouse CD38 were 0.03 to 0.1 µM and 0.001 to 0.01 µM, respectively.
On the same counts, the results for `Cc1cc(C(=O)NC2CCN(C(=O)N(C)C)CC2)nc(-n2ccnc2)c1` [Compound 21A, N-(1-(Dimethylcarbamoyl)piperidin-4-yl)-6-(1H-imidazol-1-yl)-4-methylpicolinamide] are 0.03 to 0.1 µM and 0.001 to 0.01 µM.
Regarding `CNC(=O)N1CCC(NC(=O)c2cc(C)cc(-n3ccnc3)n2)CC1` [Compound 22A, 6-(1H-Imidazol-1-yl)-4-methyl-N-(1-(methylcarbamoyl)piperidin-4-yl)picolinamide], the IC50 at human CD38 is < 0.03 µM; at mouse CD38 it was 0.001 to 0.01 µM.
As to `Cc1cc(C(=O)NC2CCS(=O)(=O)C2)nc(-n2ccnc2)c1` (stereo not shown) [Compound 23A, N-(1,1-Dioxidotetrahydrothiophen-3-yl)-6-(1H-imidazol-1-yl)-4-methylpicolinamide], the 50% inhibitory concentration (IC50) on human CD38 was in the range of 0.03 to 0.1 µM; on mouse CD38, 0.001 to 0.01 µM.
For the compound `Cc1cc(C(=O)NC2CCOC(C)(C)C2)nc(-n2ccnc2)c1` (stereo not shown) [Compound 24A, N-(2,2-Dimethyltetrahydro-2H-pyran-4-yl)-6-(1H-imidazol-1-yl)-4-methylpicolinamide], the results for the IC50 at human CD38 and on mouse CD38 were 0.1 to 1 µM and 0.001 to 0.01 µM, respectively.
On the same counts, the results for `Cc1cc(C(=O)NC2COCCC2(F)F)nc(-n2ccnc2)c1` (stereo not shown) [Compound 25A, N-(4,4-Difluorotetrahydro-2H-pyran-3-yl)-6-(1H-imidazol-1-yl)-4-methylpicolinamide] are 0.03 to 0.1 µM and 0.001 to 0.01 µM.
As to `Cc1cc(C(=O)NC2COCC(F)(F)C2)nc(-n2ccnc2)c1` (stereo not shown) [Compound 26A, N-(5,5-Difluorotetrahydro-2H-pyran-3-yl)-6-(1H-imidazol-1-yl)-4-methylpicolinamide], the concentration for half-maximal inhibition (IC50) fell in the range of 0.03 to 0.1 µM on human CD38 and 0.001 to 0.01 µM on mouse CD38.
